Source: patent US11879021B2, “Cyclic peptides and uses thereof” (UNIVERSITÉ DE MONTRÉAL, priority 2016, dated 2024)

Test system: mice exposed to intense blue light
Type: in vivo
Details: 289 nmol/kg daily s.c. for 7 days
Source text: The acute model of light-induced retinal degeneration uses short exposure to blue light to induce photoreceptor cell death leading to loss of vision (Grimm and Remé, Methods Mol Biol. 2013; 935: 87-97). Mice were exposed mice to intense blue light (wavelength=425 nm; exposure intensity=6000 lux) for five (5) successive days. The treatment was started one day after start of blue-light exposure (D1), for seven (7) successive days of daily subcutaneous (s.c) administration at 289 nmol/kg of test item solutions (MPE-001 and MPE-298). On Day 7, mice were dark adapted for electroretinography (ERG) analysis. […]
ERGs were recorded from wildtype and age matched knockout mice on Espion® ERG Diagnosys machine and a ColorDome® Ganzfeld stimulator (Diagnosys LLC, Lowell, MA). […]
Flash ERG were measured using corneal DTL Plus electrodes (Diagnosys® LLC). […] Scotopic responses were simultaneously recorded from both eyes of the dark-adapted animals at the following increasing light intensities: 0.5, 1.0, 3.0 and 10.0 cd-s/m^2. […] The amplitude and latency of major ERG components were measured with the Espion® software (Diagnosys® LLC). […] The ERG a-wave amplitudes were measured from the baseline to the primary negative peak and the b-wave was measured from the trough of the a-wave to the maximum of the […] positive peak. […]

Structure (SMILES): C=CCN1CC#CCN(NC(=O)[C@H](C)N)C(=O)N[C@H](Cc2c[nH]c3ccccc23)C(=O)N[C@@H](C)C(=O)N[C@@H](Cc2c[nH]c3ccccc23)C(=O)N[C@H](Cc2ccccc2)C(=O)N[C@H](C(N)=O)CCCC1 [MPE-298]
- subretinal inflammation (immune cell infiltration, notably IL-1β-expressing immune cells, in the retina) (F4/80-positive cells in RPE flatmounts): reduce
- outer nuclear layer (ONL) thickness (mice exposed to blue light 6000 lux): preserved
